From US20210317090A1, “AMINO ACID DEPLETION AGENTS AS ANTIPROLIFERATIVE AGENTS” (University of Central Florida Research Foundation, Inc., priority 2018, published 2021)
Read-outs that look alike come from different tables or passages of the source.

How the values were obtained:
[1] = test system: CHO K1 cells; assay: cells; format: cell-based, Chinese hamster; settings: for EC50: Cricetulus griseus, Ant-44 0.5 μM
Experimental: Various embodiments involve the concept that a non-toxic PTI agent would inhibit the uptake of the cytotoxic polyamine conjugate Ant-44 (11) and rescue cells from Ant-44 induced toxicity. For example, using the IC50 dose of Ant-44, PTIs could be identified by measuring a compound's ability to block Ant-44 entry and rescue cells back to >90% viability. […] This toxic dose of Ant-44 was kept constant throughout the assay, while the candidate PTI compound was added in increasing concentrations up to its MTD.
Compounds (9 and 10) were tested at 5 μM and 7 μM. CHO K1 cells were treated in a 96-well plate with a toxic dose of Ant-44 (2.4 μM) alone and dosed with the candidate compounds (at 5 μM and 7 μM) and incubated for 48 h at 37° C.
To further explore this effect, development of various embodiments included modifying an original screen to use a lower dose of Ant-44 (0.5 μM) to improve the dose range of 9 and 10 that could be tested. In this regard, Ant-44 was dosed at 0.5 μM alone and in combination with increasing doses of compounds 9 (1666.177) and 10 (1666.255) and the CHO K1 cells were incubated for 48 h at 37° C., and the results are shown in FIG. 5. The red line represents the % cell viability of the Ant-44 only control. The Ant44 potentiation assay EC50 value is defined as the concentration of the candidate compound required to decrease the cell viability to half that of the Ant-44 only control. Both compounds 9 and 10 were effective at decreasing cell viability, when used in combination with Ant-44 in a dose dependent fashion.
FIG. 5 is an example according to various embodiments, illustrating potentiation of Ant-44 toxicity by compounds 9 and 10 in CHO K1 cells. Cells were incubated for 48 h at 37° C. with the respective compound and a fixed concentration of cytotoxic Ant-44 (0.5 μM). A 1 mM AG solution was incubated with the CHO K1 cells for 24 h prior to the addition of candidate compound. This was necessary to protect Ant-44 from the amine oxidases present in the media containing fetal bovine serum. […] Both compounds are nontoxic at the highest concentration tested (5 μM).

[2] = test system: CHO-MG cells; assay: Cytotoxicity IC50 (MTS) in polyamine-transport-deficient CHO-MG cells; format: cell-based, Chinese hamster; settings: Cricetulus griseus, 48 h
Experimental: Regarding the biological studies performed in the following examples, it is noted that CHO K1, CHO-MG, and L3.6pl cells were grown in RPMI 1640 medium supplemented with 10% fetal bovine serum (FBS) and 1% penicillin/streptomycin. All cells were grown at 37° C. under a humidified 5% CO2 atmosphere. Aminoguanidine (1 mM used for CHO K1 and CHOMG cells and 250 μM for L3.6pl) was added to the growth medium to prevent oxidation of the compounds of the bovine serum amine oxidase enzyme that is present in calf serum. The cells used were in early to mid log phase and CHO and CHOMG were plated out at 1000 cells/well, whereas the L3.6pl cells were plated at 500 cells/well in a 96 well plate format.
This example illustrates aspects according to various embodiments pertaining to IC50 determinations and cell viability studies. Cell growth was assayed in sterile 96-well microtiter plates (Costar 3599, Corning, N.Y.). CHO K1 or CHOMG cells were plated at 1,000 cells/70 μL and L3.6pl cells at 500 cells/70 μL. […] After drug exposure (e.g., for 48 h for CHO K1 and CHO-MG and 48 h or 72 h for L3.6pl), cell growth was determined by measuring formazan formation from the 3-(4,5dimethylthiazol-2-yl)-5-(3-carboxymethoxyphenyl)-2-(4-sulfenyl)-2H tetrazolium, inner salt (MTS) using SynergyMx Biotek microplate reader for absorbance (490 nm) measurements.^27 All experiments were run in triplicate.

[3] = test system: L3.6pl cells; assay: Attached cell count (hemocytometer) after 72 h; format: cell-based, human
Experimental: In parallel with the above experiments, a dose dependence experiment was performed looking at how compound 10 at 0, 2, 5 and 7 μM affected L3.6pl cell attachment and cell number after 72 h incubation at 37° C. Successively more detached cells were observed as the concentration of compound 10 increased, particularly from 5 μM to 7 μM.
Cells were incubated with compound 10 for 72 h at 37° C. A 250 μM AG solution was incubated with the cells for 24 h prior to compound addition. Each condition was performed in duplicate.
This example illustrates aspects according to various embodiments pertaining to a 72 h experiment with Compound 10 in L3.6pl cells. Ten milliliters of a cell suspension containing L3.6pl human pancreatic cancer cells (50,000 cells/mL) and aminoguanidine ([…]) were placed in treated plastic Petri dishes (d=9 cm) and incubated overnight at 37° C. After 24 h, the cells were dosed with compound 10 at 2 μM, 5 μM, or 7 μM. (Note: Stock solutions of 10 at 2, 5, and 7 mM were dissolved in phosphate buffered saline (PBS) and were filtered through a 0.2 μm filter prior to use. The experiments were maintained with a total volume of 10.01 mL where 10 mL of the cell suspension was placed in a plastic dish and each compound or the equivalent PBS volume was added to make up the total volume 10.01 mL for each dish. For example, for the control experiment PBS (10 μL) was added to make up the total volume (10 mL+10 μL=10.01 mL). After 72 h incubation, the cells were collected first by pipetting off the supernatant containing floating dead cells from the culture dish as well as media and placing them into 15 mL tubes. The supernatant containing floating cells was centrifuged (4 min at 1,000 rpm). The cell-free supernatant (supernatant #1) was collected into a new 15 mL tube and quantified (˜8.6 mL) and was then stored frozen and was later quantified by LCMS to investigate the media composition of particular polyamine and amino acid analytes. The attached cells on the dish were washed with PBS (5 mL). The PBS wash was removed by suction and additional PBS (2 mL) was added and again suctioned off to provide twice-washed cells still adhered to the dish. Trypsin (2 mL) was then added to each dish and incubated (3-5 min) until all the cells were detached. Fresh media (8 mL) was added to quench the trypsin. The cell solutions were pipetted into separate 15 mL tubes and centrifuged (4 min at 1,000 rpm). The resulting supernatant was removed to provide a pellet. The pellet was suspended in PBS (10 mL) and was counted by a hemocytometer to provide cell counts for each experimental condition. The pellet was then centrifuged (4 min at 1,000 rpm) and the supernatant removed and the remaining pellet was quantified via protein and polyamine analysis.

[4] = test system: L3.6pl cells; assay: Intracellular polyamine and Ant-44 levels (N-dansylation, HPLC) in L3.6pl cells; format: cell-based, human; settings: 3.3 μM compound 10 (SR isomer), FIG. 10I

## CC(C)CCN1CCN(C(CNCc2ccccc2)CC2CCCCC2)CC1CC(C)C.Cl.Cl.Cl (stereo not shown) [Compound 10, Benzyl-{3-cyclohexyl-2-[3-isobutyl-4-(3-methyl-butyl)-piperazin-1-yl]-propyl}-amine trihydrochloride salt]
[1]; CHO K1 cells
  times more effective at potentiating Ant-44 than compound 9: approximately 12.5 times
[1]; CHO K1 cells, 48 h (FIG. 5), read-out: Ant-44 potentiation EC50
  EC50: 60 nM
[1]; CHO cells, 48 h, read-out: Ant44 potentiation assay EC50
  EC50: 60 nM
[2]
  IC50: 8930 ± 750 nM
[3]; 2 μM
  Cell Count: 9.40 millions
[3]; 5 μM
  Cell Count: 4.35 millions
  loss of the attached cell population: 58%
[3]; 7 μM
  Cell Count: 2.10 millions
  loss of the attached cell population: 80%
[4]
  intracellular levels of polyamine metabolites: lower levels of polyamines and N-acetylspermine
